Assay results reported in ChEMBL document CHEMBL5653631, “A Potent and Selective ULK1 Inhibitor Suppresses Autophagy and Sensitizes Cancer Cells to Nutrient Stress” (iScience, 2018).

Key:
[1] = molecular target: T1, Serine/threonine-protein kinase tousled-like 1 (Homo sapiens) (UniProt Q9UKI8); assay: Inhibition of human recombinant TLK1 at 40 nM in presence of ATP by radiometric assay relative to control
T1 sequence (whole entry): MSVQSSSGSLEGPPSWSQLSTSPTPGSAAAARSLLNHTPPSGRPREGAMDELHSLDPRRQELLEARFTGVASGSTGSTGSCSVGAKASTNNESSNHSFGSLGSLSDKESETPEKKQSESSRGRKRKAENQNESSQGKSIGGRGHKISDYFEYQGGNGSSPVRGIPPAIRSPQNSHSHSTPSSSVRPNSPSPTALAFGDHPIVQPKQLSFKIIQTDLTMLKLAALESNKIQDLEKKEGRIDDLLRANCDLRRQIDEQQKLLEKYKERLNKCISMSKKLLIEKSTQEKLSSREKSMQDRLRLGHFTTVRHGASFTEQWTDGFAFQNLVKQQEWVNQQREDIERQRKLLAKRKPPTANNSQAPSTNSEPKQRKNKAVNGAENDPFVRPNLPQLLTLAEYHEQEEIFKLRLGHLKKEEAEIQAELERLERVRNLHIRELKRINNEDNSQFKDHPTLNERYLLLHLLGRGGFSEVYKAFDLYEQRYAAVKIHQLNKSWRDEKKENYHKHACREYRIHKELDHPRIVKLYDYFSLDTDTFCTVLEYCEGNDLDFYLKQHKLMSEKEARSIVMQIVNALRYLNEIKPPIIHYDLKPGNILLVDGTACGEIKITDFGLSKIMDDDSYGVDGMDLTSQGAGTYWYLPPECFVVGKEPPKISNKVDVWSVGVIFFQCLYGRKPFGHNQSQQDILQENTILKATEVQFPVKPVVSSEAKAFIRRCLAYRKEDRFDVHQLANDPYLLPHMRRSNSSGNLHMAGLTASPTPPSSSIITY

[2] = molecular target: Receptor tyrosine-protein kinase erbB-2 (Homo sapiens) (UniProt P04626); assay: Inhibition of human recombinant ErbB2 at 40 nM in presence of ATP by radiometric assay relative to control
Chain of Receptor tyrosine-protein kinase erbB-2 (Homo sapiens) (P04626 whole entry): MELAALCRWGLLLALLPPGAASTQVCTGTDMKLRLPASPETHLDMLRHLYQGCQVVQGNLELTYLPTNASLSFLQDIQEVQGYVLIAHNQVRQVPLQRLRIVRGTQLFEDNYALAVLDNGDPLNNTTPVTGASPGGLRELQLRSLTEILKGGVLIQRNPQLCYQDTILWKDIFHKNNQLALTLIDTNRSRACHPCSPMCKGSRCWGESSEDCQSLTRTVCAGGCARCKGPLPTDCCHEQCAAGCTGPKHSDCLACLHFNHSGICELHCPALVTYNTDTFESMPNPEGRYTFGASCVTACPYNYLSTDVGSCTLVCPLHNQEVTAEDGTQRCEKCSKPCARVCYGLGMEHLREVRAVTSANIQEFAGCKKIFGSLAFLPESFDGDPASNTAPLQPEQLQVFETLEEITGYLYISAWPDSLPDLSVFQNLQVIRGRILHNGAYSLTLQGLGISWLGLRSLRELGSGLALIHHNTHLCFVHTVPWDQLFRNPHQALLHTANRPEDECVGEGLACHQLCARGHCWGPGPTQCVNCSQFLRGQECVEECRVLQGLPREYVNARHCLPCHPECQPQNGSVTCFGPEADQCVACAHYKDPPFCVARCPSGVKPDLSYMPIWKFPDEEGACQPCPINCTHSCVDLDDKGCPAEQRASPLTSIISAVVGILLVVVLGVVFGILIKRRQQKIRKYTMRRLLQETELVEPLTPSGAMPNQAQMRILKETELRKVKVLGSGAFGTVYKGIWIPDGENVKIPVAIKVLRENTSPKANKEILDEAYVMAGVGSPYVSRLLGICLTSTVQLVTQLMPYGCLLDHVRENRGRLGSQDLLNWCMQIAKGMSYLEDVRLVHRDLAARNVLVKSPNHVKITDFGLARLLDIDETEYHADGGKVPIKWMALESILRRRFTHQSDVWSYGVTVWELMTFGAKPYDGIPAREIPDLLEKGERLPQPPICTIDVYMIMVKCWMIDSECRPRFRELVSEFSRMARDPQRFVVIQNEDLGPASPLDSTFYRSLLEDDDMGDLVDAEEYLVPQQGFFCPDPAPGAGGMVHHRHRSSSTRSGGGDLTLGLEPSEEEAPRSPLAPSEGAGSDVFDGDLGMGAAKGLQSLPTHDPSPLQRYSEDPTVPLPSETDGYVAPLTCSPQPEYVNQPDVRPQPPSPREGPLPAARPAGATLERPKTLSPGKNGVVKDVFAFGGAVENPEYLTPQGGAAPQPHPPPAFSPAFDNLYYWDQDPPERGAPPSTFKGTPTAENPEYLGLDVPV

[3] = molecular target: T2, Serine/threonine-protein kinase Nek9 (Homo sapiens) (UniProt Q8TD19); assay: Inhibition of human recombinant NEK9 at 40 nM in presence of ATP by radiometric assay relative to control
T2 sequence (whole entry): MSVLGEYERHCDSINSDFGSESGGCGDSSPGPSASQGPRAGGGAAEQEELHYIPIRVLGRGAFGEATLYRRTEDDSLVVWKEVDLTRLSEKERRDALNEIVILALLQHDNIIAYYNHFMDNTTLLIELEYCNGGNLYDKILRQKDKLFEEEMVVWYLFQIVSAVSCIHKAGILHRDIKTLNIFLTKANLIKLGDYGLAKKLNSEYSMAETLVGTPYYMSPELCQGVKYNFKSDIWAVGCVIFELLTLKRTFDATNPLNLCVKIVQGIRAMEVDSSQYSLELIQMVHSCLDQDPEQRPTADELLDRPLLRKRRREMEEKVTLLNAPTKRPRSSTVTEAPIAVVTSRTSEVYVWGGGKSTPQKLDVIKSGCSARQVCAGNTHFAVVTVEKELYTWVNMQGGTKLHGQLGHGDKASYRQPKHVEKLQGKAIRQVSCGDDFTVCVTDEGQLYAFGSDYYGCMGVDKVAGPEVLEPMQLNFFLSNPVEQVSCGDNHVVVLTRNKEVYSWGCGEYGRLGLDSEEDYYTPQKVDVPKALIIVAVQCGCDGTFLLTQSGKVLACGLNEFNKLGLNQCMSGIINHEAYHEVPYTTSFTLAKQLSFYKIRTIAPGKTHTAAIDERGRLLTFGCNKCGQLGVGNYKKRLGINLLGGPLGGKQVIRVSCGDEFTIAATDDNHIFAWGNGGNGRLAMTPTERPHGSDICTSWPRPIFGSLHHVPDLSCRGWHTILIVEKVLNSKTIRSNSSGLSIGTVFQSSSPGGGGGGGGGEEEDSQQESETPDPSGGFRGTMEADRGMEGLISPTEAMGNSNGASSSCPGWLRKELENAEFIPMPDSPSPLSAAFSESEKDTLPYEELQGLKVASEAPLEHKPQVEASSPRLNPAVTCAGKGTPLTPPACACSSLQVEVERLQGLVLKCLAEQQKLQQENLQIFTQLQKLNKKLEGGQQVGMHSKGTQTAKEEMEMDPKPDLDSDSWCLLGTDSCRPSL

[4] = molecular target: Serine/threonine-protein kinase Chk2 (Homo sapiens) (UniProt O96017); assay: Inhibition of human recombinant CHK2 at 15 nM related to control ULK1
Chain of Serine/threonine-protein kinase Chk2 (Homo sapiens) (O96017 whole entry): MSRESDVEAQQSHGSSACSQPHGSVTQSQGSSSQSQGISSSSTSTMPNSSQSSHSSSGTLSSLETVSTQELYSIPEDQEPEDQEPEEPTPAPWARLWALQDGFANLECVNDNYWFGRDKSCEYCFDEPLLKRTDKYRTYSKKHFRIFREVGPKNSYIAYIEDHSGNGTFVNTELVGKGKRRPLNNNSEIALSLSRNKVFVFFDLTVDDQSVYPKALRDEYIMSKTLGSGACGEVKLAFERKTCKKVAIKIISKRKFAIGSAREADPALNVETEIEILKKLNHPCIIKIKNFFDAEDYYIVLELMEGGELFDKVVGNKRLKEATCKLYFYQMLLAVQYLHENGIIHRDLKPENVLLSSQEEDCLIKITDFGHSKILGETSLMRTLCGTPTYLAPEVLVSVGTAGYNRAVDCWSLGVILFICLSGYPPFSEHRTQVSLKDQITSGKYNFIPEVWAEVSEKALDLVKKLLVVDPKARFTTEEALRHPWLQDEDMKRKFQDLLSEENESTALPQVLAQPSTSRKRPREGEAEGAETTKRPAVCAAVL

[5] = molecular target: DNA-PK/Ku70/Ku85 (Homo sapiens) (UniProt P78527+P12956+P13010); assay: Inhibition of human recombinant DNAPK at 15 nM in presence of ATP by radiometric assay relative to control; assay type: protein-complex assay
[6] = molecular target: Angiopoietin-1 receptor (Homo sapiens) (UniProt Q02763); assay: Inhibition of human recombinant Tie2 at 15 nM related to control ULK1
[7] = molecular target: Cyclin-dependent kinase 13 (Homo sapiens) (UniProt Q14004); assay: Inhibition of human recombinant CHED at 15 nM related to control ULK1
Chain of Cyclin-dependent kinase 13 (Homo sapiens) (Q14004 whole entry, looked up): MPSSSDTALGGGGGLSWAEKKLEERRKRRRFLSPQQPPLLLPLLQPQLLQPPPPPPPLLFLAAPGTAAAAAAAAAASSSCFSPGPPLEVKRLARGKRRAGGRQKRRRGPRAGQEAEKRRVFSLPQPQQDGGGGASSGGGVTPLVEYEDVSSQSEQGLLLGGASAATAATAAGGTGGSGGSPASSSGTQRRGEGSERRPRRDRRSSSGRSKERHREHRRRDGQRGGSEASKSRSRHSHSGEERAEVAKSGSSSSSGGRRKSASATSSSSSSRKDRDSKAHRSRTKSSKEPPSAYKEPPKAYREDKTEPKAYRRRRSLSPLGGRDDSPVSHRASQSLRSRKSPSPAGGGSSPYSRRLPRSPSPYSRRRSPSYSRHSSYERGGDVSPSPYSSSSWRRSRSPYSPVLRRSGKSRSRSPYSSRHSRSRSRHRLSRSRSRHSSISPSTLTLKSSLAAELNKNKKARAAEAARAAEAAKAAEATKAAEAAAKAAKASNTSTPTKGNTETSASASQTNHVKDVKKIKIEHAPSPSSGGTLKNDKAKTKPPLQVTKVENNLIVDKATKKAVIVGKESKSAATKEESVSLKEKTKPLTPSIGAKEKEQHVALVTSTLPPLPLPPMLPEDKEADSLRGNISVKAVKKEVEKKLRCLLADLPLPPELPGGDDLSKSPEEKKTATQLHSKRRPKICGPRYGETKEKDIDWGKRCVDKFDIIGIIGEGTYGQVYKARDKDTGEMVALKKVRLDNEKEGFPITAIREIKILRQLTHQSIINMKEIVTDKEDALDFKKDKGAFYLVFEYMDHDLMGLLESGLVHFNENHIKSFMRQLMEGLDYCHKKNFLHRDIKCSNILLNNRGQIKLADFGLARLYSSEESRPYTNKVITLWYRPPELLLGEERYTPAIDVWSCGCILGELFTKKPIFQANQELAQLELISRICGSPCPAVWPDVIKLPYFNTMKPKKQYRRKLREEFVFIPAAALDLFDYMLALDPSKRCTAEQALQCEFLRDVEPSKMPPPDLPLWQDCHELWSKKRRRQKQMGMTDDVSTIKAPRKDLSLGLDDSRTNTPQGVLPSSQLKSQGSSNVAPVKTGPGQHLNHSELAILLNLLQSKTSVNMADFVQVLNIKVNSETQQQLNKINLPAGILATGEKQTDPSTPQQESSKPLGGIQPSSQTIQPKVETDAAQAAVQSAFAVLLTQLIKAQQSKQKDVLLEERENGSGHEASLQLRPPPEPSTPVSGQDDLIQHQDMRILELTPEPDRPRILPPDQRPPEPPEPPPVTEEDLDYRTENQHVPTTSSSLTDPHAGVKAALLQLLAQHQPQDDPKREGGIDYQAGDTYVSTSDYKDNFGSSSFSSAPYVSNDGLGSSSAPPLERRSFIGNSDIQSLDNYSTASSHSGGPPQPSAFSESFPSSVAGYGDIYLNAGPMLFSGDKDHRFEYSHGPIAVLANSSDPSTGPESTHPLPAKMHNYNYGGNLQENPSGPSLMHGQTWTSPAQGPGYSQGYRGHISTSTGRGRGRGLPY

[8] = molecular target: T3, NUAK family SNF1-like kinase 1 (Homo sapiens) (UniProt O60285); assay: Inhibition of human recombinant NuaK1 at 15 nM related to control ULK1
T3 sequence (whole entry): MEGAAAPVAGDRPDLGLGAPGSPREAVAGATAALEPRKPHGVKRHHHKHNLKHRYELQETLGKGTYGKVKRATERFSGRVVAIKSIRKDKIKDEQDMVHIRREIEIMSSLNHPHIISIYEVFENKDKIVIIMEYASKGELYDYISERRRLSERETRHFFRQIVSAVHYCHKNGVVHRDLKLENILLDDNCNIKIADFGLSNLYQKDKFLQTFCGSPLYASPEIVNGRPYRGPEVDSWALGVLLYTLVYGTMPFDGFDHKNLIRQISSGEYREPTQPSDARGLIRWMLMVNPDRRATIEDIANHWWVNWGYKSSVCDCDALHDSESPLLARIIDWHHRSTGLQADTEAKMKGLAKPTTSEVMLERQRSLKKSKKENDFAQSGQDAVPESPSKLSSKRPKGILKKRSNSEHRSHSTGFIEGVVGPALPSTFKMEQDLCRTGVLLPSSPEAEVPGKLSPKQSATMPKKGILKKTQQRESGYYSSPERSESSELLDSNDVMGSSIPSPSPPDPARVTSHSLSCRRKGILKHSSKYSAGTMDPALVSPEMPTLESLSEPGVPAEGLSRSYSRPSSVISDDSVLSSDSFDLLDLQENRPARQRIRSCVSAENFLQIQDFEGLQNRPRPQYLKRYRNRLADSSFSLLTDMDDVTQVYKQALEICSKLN

[9] = molecular target: Proto-oncogene tyrosine-protein kinase Src (Homo sapiens) (UniProt P12931); assay: Inhibition of human recombinant SRC at 15 nM in presence of ATP by radiometric assay relative to control
Chain of Proto-oncogene tyrosine-protein kinase Src (Homo sapiens) (P12931 2-536 limits assumed): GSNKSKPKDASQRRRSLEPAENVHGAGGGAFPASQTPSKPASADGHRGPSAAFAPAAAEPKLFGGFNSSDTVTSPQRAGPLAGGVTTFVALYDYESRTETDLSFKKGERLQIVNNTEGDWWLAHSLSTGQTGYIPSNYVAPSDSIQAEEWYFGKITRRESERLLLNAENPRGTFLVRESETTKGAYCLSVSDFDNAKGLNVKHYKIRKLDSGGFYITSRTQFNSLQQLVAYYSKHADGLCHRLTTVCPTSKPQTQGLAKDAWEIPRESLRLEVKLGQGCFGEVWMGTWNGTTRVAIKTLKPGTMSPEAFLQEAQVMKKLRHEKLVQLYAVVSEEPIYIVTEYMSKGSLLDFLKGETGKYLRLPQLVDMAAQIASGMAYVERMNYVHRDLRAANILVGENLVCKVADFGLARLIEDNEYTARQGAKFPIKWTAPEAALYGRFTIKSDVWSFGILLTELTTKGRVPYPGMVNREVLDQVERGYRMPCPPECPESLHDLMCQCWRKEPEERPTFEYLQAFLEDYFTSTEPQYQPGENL

[10] = molecular target: Mitogen-activated protein kinase kinase kinase 20 (Homo sapiens) (UniProt Q9NYL2); assay: Inhibition of human recombinant ZAK at 500 nM in presence of ATP by radiometric assay relative to control
Chain of Mitogen-activated protein kinase kinase kinase 20 (Homo sapiens) (Q9NYL2 2-800 limits assumed): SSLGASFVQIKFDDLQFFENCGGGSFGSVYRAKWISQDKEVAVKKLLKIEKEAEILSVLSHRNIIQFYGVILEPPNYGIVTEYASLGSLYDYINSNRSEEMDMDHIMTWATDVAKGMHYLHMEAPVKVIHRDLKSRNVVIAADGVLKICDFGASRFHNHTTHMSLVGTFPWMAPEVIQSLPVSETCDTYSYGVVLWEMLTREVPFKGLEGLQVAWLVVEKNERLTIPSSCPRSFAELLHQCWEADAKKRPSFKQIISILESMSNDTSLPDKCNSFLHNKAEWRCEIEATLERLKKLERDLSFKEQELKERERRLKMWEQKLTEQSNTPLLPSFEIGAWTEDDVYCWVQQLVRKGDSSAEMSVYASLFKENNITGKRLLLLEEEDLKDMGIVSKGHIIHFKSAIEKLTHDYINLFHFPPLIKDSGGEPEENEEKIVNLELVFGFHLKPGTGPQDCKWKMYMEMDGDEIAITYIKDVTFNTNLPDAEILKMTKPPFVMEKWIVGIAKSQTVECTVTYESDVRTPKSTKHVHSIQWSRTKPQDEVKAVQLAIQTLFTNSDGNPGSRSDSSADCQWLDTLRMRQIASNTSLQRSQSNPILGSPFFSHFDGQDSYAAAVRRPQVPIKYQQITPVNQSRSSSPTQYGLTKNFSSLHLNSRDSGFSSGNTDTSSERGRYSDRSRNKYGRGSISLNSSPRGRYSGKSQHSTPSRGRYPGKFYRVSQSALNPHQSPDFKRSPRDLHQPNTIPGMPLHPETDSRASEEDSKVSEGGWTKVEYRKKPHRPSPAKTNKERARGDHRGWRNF

Structure (SMILES): O=C(N[C@@H](C1CC1)C(F)(F)F)c1cc(-c2cnn3cc(-c4ccc(F)cc4)cnc23)cs1
- inhibition [1]: 0%
- inhibition [2]: 0%
- inhibition [3]: 5%

Structure (SMILES): CC(C)[C@H](NC(=O)c1cc(-c2cnn3cc(-c4ccc(OCCN5CCCCC5)cc4)cnc23)cs1)C(F)(F)F
- fold change (FC) [4]: 0
- inhibition [5]: 0%
- fold change (FC) [6]: 0
- fold change (FC) [7]: 0
- fold change (FC) [8]: 0.31
- inhibition [9]: 15%

Structure (SMILES): CNC(=O)c1ccccc1Oc1nc(Nc2cc(OC)c(OC)c(OC)c2)ncc1Br
- inhibition [10]: 1%
